Tested on: PTEN-P2/GFP prostate cancer cells
Test: Effect of 1,4-naphthoquinone analogs on PTEN-P2/GFP cell proliferation (WST-1 cell viability, 24 h)
Format: cell-based
Conditions: Mus musculus, WST-1, medium with 10% FBS and DHT, read-out: PTEN-P2/GFP cell proliferation, percent of control
Experimental: Cells are grown in phenol red-free DMEM medium containing 10% FBS, 2 mM L-glutamine, 100 U/ml penicillin/100 μg/ml streptomycin, insulin-selenium-transferrin (5 μg/ml insulin), and DHT 10^−8M final. Androgen withdrawal is achieved by not adding DHT to the medium. Cells are maintained in a humidified incubator at 37° C. and 5% CO2. G418 (100 μg/ml) is added to maintain stable expression of H2B-GFP.
100 microliters of PTEN-P2/GFP prostate cancer cells were plated at a density of 8000 cells/well in 96-well plates (triplicates) in growing medium containing 10% Fetal Bovine Serum and DHT. The next day, increasing concentrations of a 1,4-naphthoquinone analog (diluted from 10 mM DMSO stock solutions) were added. DMSO used as solvent for all analogs, was kept constant through the 96-well plates. The control consisted of DMSO alone. The cells were subsequently incubated for 24 hours at 37° C. and 5% CO2 in normal cell growth conditions. Cell viability was assessed by adding 9 μL/well of WST-1 reagent (Clontech), which measured mitochondrial activity of live cells. […] The incubation time was 3 hours at 37° C. Optical density of the cell samples was measured at 460 nm, by using plate reader Spectra Max 250 (Molecular Devices). The drug was determined to be cytotoxic when OD values show an inverse correlation with analog concentrations. The results are shown in TABLES 3.1-3.4, FIGS. 2A-2E, and FIGS. 3A-3D.

SMILES	activity at 2 µM [%]	activity at 3 µM [%]	activity at 4 µM [%]	activity at 5 µM [%]	activity at 6 µM [%]	activity at 7 µM [%]	activity at 10 µM [%]	activity at 15 µM [%]	activity at 25 µM [%]	activity at 1 µM [%]	activity at 50 µM [%]
CC(=O)NC1=C(Oc2ccc(NC(C)=O)cc2)C(=O)c2ccccc2C1=O [Analog F40, N-(4-((3-acetamido-1,4-dioxo-1,4-dihydronaphthalen-2-yl)oxy)phenyl)acetamide]	97	98.8	89.2	85.2	73.2	67.3	56.2	46.1	44.6		
COc1ccc(OC2=C(NC(C)=O)C(=O)c3ccccc3C2=O)cc1 [Analog F41, N-(3-(4-methoxyphenoxy)-1,4-dioxo-1,4-dihydronaphthalen-2-yl)acetamide]	95.1	89.8	84.5	75	69.6	63.9	36.9	13.5	12.6		
CC(=O)NC1=C(Oc2ccc(OCc3ccccc3)cc2)C(=O)c2ccccc2C1=O [Analog F42, N-(3-(4-(benzyloxy)phenoxy)-1,4-dioxo-1,4-dihydronaphthalen-2-yl)acetamide]	101	101	97.6	89.1	83.8	75.3	37.5	20.2	16.6		
CC(=O)NC1=C(Oc2cc(F)cc(F)c2)C(=O)c2ccccc2C1=O [Analog F43, N-(3-(3,5-difluorophenoxy)-1,4-dioxo-1,4-dihydronaphthalen-2-yl)acetamide]	94.6	88.7	78.3	68.4	55.3	45.2	32.9	24.7	24.1		
CC(=O)NC1=C(Oc2ccc(OC3=C(NC(C)=O)C(=O)c4ccccc4C3=O)cc2)C(=O)c2ccccc2C1=O [Analog F44, N,N′-((1,4-phenylenebis(oxy))bis(1,4-dioxo-1,4-dihydronaphthalene-3,2-diyl))diacetamide]	106	102	69	58.6	50.5	45.4	38.7	20.9	17.1		
COC(=O)CSC1=C(C)C(=O)c2cccc(O)c2C1=O [Analog F46, Methyl 2-((8-hydroxy-3-methyl-1,4-dioxo-1,4-dihydronaphthalen-2-yl)thio)acetate]	90.6	84.9	75	66.1	60.6	54.7	33		13	95.4	13.6
COc1cccc2c1C(=O)C=C(C)C2=O [Analog F47, 5-methoxy-2-methyl-1,4-naphthoquinone]	104	104	107	105	105	106	109		78.8	105	11.1
CC1=CC(=O)c2c(OCCCCI)cccc2C1=O [Analog F48, 5-(4-iodobutoxy)-2-methyl-1,4-naphthoquinone]	102	102	102	109	112	115	103		11	103	10
